Assay results: ChEMBL document CHEMBL3991601, “The target landscape of clinical kinase drugs” (Science, 2017)
Where a name gives a salt, the structure may show the parent alone. Calls of active or inactive are those of the source.

Key:
[1] = biological target: Serine/threonine-protein kinase B-raf (Homo sapiens, UniProt P15056)
[2] = biological target: T1, Acyl-CoA dehydrogenase family member 11 (Homo sapiens, UniProt Q709F0)
T1 sequence (Q709F0 whole entry): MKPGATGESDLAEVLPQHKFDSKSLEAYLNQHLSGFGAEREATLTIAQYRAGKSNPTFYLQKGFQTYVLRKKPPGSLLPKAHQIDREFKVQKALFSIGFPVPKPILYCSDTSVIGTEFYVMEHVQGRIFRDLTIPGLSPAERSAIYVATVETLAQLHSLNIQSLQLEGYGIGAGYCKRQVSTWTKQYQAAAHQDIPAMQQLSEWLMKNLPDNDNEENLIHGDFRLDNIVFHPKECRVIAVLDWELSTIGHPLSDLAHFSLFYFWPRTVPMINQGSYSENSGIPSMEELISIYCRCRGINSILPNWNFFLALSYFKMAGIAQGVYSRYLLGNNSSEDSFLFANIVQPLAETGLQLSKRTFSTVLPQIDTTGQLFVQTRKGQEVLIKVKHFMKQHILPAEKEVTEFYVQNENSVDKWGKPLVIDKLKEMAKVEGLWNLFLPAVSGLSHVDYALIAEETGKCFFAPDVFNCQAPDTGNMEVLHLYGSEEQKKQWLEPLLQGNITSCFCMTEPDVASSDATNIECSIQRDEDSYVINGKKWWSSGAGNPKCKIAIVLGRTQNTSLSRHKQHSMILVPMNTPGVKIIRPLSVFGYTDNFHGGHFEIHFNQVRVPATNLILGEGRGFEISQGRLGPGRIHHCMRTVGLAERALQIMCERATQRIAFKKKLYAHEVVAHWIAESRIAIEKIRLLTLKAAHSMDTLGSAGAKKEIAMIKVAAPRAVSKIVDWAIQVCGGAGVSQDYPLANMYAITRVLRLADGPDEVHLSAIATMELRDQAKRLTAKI

[3] = biological target: Casein kinase II subunit alpha' (Homo sapiens, UniProt P19784)
[4] = biological target: Ribosomal protein S6 kinase alpha-4 (Homo sapiens, UniProt O75676)
TGF-beta receptor type-1 = biological target: T2, TGF-beta receptor type-1 (Homo sapiens, UniProt P36897)
T2 sequence (P36897 whole entry): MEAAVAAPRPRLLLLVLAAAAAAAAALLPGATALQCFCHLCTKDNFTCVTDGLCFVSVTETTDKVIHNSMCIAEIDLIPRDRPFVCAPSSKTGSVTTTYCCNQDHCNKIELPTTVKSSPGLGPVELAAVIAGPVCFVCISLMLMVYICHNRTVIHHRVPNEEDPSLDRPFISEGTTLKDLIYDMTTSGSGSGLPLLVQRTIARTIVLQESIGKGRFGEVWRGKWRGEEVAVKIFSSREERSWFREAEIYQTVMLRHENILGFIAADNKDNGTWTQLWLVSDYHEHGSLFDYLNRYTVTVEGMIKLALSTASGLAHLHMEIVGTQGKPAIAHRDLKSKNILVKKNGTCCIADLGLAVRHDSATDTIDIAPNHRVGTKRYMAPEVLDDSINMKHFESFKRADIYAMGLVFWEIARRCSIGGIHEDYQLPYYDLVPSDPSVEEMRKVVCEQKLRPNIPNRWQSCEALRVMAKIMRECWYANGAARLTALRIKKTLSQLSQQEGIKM

[5] = biological target: T3, Signal recognition particle receptor subunit alpha (Homo sapiens, UniProt P08240)
T3 sequence (P08240 whole entry): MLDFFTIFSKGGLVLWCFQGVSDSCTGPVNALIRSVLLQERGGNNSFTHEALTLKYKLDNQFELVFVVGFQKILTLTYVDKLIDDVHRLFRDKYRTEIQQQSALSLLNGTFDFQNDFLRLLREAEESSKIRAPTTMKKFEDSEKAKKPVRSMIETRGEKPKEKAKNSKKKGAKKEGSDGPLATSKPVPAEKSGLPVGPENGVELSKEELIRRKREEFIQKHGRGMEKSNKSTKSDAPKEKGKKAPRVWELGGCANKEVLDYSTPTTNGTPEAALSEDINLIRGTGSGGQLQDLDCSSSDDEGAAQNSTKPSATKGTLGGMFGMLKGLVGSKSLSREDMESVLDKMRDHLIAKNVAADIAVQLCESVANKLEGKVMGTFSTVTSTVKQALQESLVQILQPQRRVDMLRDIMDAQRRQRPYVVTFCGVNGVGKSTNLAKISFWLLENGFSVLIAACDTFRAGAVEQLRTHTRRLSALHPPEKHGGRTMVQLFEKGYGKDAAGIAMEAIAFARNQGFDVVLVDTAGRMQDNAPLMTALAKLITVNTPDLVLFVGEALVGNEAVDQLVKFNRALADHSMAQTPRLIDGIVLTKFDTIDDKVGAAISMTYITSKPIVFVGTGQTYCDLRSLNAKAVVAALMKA

[6] = biological target: T4, cGMP-dependent protein kinase 1 (Homo sapiens, UniProt Q13976)
T4 sequence (Q13976 whole entry): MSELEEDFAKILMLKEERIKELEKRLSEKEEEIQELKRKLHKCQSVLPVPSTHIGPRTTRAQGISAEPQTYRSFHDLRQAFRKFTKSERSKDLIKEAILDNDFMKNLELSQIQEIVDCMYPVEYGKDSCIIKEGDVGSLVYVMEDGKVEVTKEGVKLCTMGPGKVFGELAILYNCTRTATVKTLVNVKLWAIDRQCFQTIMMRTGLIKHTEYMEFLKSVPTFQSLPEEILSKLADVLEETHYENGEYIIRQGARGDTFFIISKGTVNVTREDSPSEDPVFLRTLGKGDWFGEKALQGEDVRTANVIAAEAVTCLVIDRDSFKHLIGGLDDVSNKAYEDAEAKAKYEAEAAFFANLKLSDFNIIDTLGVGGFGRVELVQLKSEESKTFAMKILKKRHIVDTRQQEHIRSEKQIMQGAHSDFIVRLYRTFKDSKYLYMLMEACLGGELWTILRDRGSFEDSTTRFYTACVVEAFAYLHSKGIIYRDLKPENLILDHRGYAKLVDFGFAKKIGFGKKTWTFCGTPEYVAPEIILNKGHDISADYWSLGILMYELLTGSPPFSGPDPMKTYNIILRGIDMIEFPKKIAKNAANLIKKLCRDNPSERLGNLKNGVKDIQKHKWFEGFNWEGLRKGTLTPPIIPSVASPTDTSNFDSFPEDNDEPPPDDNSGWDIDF

[7] = biological target: Serine/threonine-protein kinase MRCK alpha (Homo sapiens, UniProt Q5VT25)
Further: in the data inactive means no Kd found up to 30 µM.

Chain of Casein kinase II subunit alpha' (P19784 whole entry): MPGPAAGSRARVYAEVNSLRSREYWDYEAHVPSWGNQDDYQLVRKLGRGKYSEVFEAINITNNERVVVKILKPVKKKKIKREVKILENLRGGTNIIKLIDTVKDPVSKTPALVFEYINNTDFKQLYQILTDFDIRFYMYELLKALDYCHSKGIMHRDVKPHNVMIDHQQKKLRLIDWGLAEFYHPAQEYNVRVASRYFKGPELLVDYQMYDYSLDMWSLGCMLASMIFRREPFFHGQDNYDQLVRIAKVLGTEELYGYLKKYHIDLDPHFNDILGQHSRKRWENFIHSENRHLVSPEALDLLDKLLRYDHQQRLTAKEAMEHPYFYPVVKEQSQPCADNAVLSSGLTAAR
Chain of Serine/threonine-protein kinase B-raf (P15056 whole entry): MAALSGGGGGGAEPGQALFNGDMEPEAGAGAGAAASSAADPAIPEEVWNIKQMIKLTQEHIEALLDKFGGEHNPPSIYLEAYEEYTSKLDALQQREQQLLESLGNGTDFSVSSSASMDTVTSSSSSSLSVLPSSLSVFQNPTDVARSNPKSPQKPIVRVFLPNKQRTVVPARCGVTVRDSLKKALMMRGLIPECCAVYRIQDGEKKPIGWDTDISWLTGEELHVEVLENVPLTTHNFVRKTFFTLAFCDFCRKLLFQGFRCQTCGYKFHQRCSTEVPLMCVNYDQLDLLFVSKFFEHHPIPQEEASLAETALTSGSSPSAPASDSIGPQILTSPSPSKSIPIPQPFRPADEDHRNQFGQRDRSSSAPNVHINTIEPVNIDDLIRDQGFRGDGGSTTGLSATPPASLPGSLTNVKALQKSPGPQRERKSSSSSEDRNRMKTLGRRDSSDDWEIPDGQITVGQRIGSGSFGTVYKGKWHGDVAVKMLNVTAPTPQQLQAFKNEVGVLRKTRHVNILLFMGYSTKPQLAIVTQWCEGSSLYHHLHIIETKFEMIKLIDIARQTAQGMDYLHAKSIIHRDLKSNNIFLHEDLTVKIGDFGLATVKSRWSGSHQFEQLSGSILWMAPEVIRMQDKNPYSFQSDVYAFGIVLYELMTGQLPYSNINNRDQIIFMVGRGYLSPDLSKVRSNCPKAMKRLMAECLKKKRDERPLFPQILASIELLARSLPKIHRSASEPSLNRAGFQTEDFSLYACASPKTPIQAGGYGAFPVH
Chain of Ribosomal protein S6 kinase alpha-4 (O75676 whole entry): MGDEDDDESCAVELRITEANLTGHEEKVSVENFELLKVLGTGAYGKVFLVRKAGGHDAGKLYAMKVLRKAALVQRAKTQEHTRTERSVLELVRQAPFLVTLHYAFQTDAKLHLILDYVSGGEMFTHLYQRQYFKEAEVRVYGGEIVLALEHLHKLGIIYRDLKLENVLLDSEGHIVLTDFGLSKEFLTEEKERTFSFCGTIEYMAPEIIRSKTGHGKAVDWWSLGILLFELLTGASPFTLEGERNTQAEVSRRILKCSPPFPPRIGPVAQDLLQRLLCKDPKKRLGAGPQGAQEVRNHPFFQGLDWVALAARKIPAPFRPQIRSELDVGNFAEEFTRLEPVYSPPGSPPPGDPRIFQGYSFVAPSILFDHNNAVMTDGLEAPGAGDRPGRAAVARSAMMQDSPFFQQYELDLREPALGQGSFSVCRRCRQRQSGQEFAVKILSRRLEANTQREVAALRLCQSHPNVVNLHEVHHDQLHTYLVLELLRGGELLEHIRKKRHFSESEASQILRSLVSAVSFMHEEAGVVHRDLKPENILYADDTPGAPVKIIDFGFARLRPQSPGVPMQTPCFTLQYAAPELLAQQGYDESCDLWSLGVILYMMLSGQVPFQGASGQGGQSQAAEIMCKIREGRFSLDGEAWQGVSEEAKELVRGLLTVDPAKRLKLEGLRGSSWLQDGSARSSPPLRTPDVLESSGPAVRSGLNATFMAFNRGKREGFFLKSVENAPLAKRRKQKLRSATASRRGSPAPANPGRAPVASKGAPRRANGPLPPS
Chain of Serine/threonine-protein kinase MRCK alpha (Q5VT25 whole entry): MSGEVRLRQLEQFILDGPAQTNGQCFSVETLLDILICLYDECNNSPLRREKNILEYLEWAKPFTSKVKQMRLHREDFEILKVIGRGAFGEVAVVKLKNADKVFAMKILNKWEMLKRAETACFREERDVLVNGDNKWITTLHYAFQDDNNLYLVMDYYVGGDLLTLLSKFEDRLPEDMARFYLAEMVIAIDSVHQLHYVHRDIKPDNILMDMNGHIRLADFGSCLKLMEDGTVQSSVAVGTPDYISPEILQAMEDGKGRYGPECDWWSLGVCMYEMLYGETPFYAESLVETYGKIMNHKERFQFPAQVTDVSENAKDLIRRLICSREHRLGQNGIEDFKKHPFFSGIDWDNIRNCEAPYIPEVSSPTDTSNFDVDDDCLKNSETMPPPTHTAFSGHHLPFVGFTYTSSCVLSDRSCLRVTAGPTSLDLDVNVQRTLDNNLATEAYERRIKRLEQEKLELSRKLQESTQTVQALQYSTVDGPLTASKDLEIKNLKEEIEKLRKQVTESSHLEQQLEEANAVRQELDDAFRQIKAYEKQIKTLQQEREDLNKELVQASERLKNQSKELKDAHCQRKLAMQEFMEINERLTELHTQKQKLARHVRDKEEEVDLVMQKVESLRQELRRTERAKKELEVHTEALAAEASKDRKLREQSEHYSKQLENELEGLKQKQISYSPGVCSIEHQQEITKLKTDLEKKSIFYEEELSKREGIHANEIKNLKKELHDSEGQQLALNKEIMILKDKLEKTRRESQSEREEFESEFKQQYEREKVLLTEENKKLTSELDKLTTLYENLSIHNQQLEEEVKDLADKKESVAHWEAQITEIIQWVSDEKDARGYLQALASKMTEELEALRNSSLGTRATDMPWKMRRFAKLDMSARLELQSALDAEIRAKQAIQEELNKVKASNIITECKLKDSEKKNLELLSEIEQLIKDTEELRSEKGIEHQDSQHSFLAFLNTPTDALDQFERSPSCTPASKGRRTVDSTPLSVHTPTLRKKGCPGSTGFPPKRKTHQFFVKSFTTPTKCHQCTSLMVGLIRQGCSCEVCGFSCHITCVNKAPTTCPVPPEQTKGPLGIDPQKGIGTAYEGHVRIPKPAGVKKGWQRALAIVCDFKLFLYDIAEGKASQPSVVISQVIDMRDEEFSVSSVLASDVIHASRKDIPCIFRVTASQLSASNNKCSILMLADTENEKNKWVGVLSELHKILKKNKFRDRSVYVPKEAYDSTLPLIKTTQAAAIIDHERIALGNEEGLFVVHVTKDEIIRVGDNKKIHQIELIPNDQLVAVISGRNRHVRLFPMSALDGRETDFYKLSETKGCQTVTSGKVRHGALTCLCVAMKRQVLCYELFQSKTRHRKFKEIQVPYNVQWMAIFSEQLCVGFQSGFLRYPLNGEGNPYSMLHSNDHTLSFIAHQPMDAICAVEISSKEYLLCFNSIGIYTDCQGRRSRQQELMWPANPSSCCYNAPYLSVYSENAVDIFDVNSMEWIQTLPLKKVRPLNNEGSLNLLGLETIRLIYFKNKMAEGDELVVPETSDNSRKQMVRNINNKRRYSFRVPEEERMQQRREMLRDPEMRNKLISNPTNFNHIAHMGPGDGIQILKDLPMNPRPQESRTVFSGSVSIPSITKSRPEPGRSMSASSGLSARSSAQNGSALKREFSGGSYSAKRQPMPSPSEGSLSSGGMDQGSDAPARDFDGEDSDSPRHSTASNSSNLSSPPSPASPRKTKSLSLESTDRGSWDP

Structure (SMILES) | Kd [1] | Kd [2] | Kd [3] | Kd [4] | Kd (TGF-beta receptor type-1) | Kd [5] | Kd [6] | Kd [7]
Cc1nc2cc(-c3nn(C(C)C)c4ncnc(N)c34)ccc2o1 | > 30 µM (inactive) | > 30 µM (inactive) | > 30 µM (inactive) | > 30 µM (inactive) | 2.47 µM (active) | > 30 µM (inactive) | > 30 µM (inactive) | > 30 µM (inactive)
Cc1nc(NC(=O)N2CCC[C@H]2C(N)=O)sc1-c1ccnc(C(C)(C)C(F)(F)F)c1 [ALPELISIB] | > 30 µM (inactive) | > 30 µM (inactive) | > 30 µM (inactive) | > 30 µM (inactive) | > 30 µM (inactive) | > 30 µM (inactive) | > 30 µM (inactive) | > 30 µM (inactive)
Cc1csc(-c2nnc(Nc3ccc(Oc4ncccc4-c4ccnc(N)n4)cc3)c3ccccc23)c1 [AMG-900] | 2.48 µM (active) | > 30 µM (inactive) | > 30 µM (inactive) | 2.07 µM (active) | > 30 µM (inactive) | > 30 µM (inactive) | > 30 µM (inactive) | > 30 µM (inactive)
NC(=O)Nc1cc(-c2cccc(F)c2)sc1C(=O)N[C@H]1CCCNC1 [AZD-7762] | > 30 µM (inactive) | > 30 µM (inactive) | 3.15 µM (active) | 0.879 µM (active) | > 30 µM (inactive) | > 30 µM (inactive) | > 30 µM (inactive) | > 30 µM (inactive)
Cc1cc(C(=O)NOCCO)c(Nc2ccc(I)cc2F)n(C)c1=O [AZD-8330] | > 30 µM (inactive) | > 30 µM (inactive) | > 30 µM (inactive) | > 30 µM (inactive) | > 30 µM (inactive) | > 30 µM (inactive) | > 30 µM (inactive) | > 30 µM (inactive)
Cn1cnc2c(F)c(Nc3ccc(Br)cc3F)c(C(=O)NOCCO)cc21 [BINIMETINIB] | > 30 µM (inactive) | > 30 µM (inactive) | > 30 µM (inactive) | > 30 µM (inactive) | > 30 µM (inactive) | > 30 µM (inactive) | > 30 µM (inactive) | > 30 µM (inactive)
CCn1c(C(=O)N(C2CC2)C2CC2)cc2c3c(ncn3C)c(Nc3cc(C)n(C)n3)nc21 [BMS-911543] | > 30 µM (inactive) | > 30 µM (inactive) | > 30 µM (inactive) | > 30 µM (inactive) | > 30 µM (inactive) | > 30 µM (inactive) | > 30 µM (inactive) | > 30 µM (inactive)
COc1cc2ncnc(Oc3cccc(NC(=O)Nc4cc(C(C)(C)C(F)(F)F)on4)c3)c2cc1OC [CEP-32496] | 2.85 µM (active) | > 30 µM (inactive) | > 30 µM (inactive) | > 30 µM (inactive) | > 30 µM (inactive) | > 30 µM (inactive) | > 30 µM (inactive) | > 30 µM (inactive)
Cc1cc(Nc2ncc(Cl)c(Nc3ccccc3S(=O)(=O)C(C)C)n2)c(OC(C)C)cc1C1CCNCC1 [CERITINIB] | > 30 µM (inactive) | > 30 µM (inactive) | > 30 µM (inactive) | > 30 µM (inactive) | > 30 µM (inactive) | > 30 µM (inactive) | > 30 µM (inactive) | > 30 µM (inactive)
COc1c(OCCCN2CCOCC2)ccc2c1N=C(NC(=O)c1cnc(N)nc1)N1CCN=C21 [COPANLISIB] | > 30 µM (inactive) | > 30 µM (inactive) | > 30 µM (inactive) | > 30 µM (inactive) | > 30 µM (inactive) | > 30 µM (inactive) | > 30 µM (inactive) | > 30 µM (inactive)
C#Cc1cccc(Nc2ncnc3cc(OC)c(OCCCCCCC(=O)NO)cc23)c1 [CUDC-101] | > 30 µM (inactive) | > 30 µM (inactive) | > 30 µM (inactive) | > 30 µM (inactive) | > 30 µM (inactive) | > 30 µM (inactive) | > 30 µM (inactive) | > 30 µM (inactive)
CCS(=O)(=O)N1CCN(c2ccc(Nc3ncc(C(N)=O)c(NC4CC4)n3)cc2)CC1 [Cerdulatinib Hydrochloride] | > 30 µM (inactive) | > 30 µM (inactive) | 16.3 µM (active) | > 30 µM (inactive) | > 30 µM (inactive) | > 30 µM (inactive) | > 30 µM (inactive) | > 30 µM (inactive)
O=C(Nc1nc2cccc(-c3ccc(CN4CCS(=O)(=O)CC4)cc3)n2n1)C1CC1 [FILGOTINIB] | > 30 µM (inactive) | > 30 µM (inactive) | > 30 µM (inactive) | > 30 µM (inactive) | > 30 µM (inactive) | > 30 µM (inactive) | > 30 µM (inactive) | > 30 µM (inactive)
COc1ccc(S(=O)(=O)N(C(C)=O)c2ccccc2/C=C/c2cc[n+]([O-])cc2)cc1 [HMN-214] | > 30 µM (inactive) | > 30 µM (inactive) | > 30 µM (inactive) | > 30 µM (inactive) | > 30 µM (inactive) | > 30 µM (inactive) | > 30 µM (inactive) | > 30 µM (inactive)
CNC(=O)c1nn(C)c2c1C(C)(C)Cc1cnc(Nc3ccc(N4CCN(C)CC4)cc3)nc1-2 [MILCICLIB] | > 30 µM (inactive) | > 30 µM (inactive) | 3.5 µM (active) | > 30 µM (inactive) | > 30 µM (inactive) | > 30 µM (inactive) | > 30 µM (inactive) | > 30 µM (inactive)
Cn1cc(-c2cnc3ccc4ccc(CS(=O)(=O)NCc5ccccn5)cc4c(=O)c3c2)cn1 [MK-8033] | > 30 µM (inactive) | > 30 µM (inactive) | > 30 µM (inactive) | > 30 µM (inactive) | > 30 µM (inactive) | > 30 µM (inactive) | > 30 µM (inactive) | > 30 µM (inactive)
FC(F)(F)c1ccc(/C=C/c2nc(COc3ccc(CCCCn4ccnn4)cc3)co2)cc1 [MUBRITINIB] | > 30 µM (inactive) | > 30 µM (inactive) | > 30 µM (inactive) | > 30 µM (inactive) | > 30 µM (inactive) | > 30 µM (inactive) | > 30 µM (inactive) | > 30 µM (inactive)
